Source: patent US12281080B2, “Quinoline-based compounds and methods of inhibiting CDK8/19” (University of South Carolina, priority 2018, dated 2025)

How the values were obtained:
PHKG1 = PHKG1 (Homo sapiens (Human), UniProt Q16816); assay: KINOMEscan scanMAX; assay type: binding; details: 2000 nM; read-out: Percent Control
MAP3K1 = MAP3K1 (Homo sapiens (Human), UniProt Q13233); assay: KINOMEscan scanMAX; assay type: binding; details: 2000 nM; read-out: Percent Control
CDK8 = CDK8 (Homo sapiens (Human), UniProt P49336); assay: KINOMEscan scanMAX; assay type: binding; details: 2000 nM; read-out: Percent Control
CAMK4 = CAMK4 (Homo sapiens (Human), UniProt Q16566); assay: KINOMEscan scanMAX; assay type: binding; details: 2000 nM; read-out: Percent Control
IRAK3 = IRAK3 (Homo sapiens (Human), UniProt Q9Y616); assay: KINOMEscan scanMAX; assay type: binding; details: 2000 nM; read-out: Percent Control
EPHA1 = EPHA1 (Homo sapiens (Human), UniProt P21709); assay: KINOMEscan scanMAX; assay type: binding; details: 2000 nM; read-out: Percent Control
HPK1 (MAP4K1) = HPK1 (MAP4K1) (Homo sapiens (Human), UniProt Q92918); assay: KINOMEscan scanMAX; assay type: binding; details: 2000 nM; read-out: Percent Control
PLK1 = PLK1 (Homo sapiens (Human), UniProt P53350); assay: KINOMEscan scanMAX; assay type: binding; details: 2000 nM; read-out: Percent Control
Chain of PLK1 (P53350 whole entry): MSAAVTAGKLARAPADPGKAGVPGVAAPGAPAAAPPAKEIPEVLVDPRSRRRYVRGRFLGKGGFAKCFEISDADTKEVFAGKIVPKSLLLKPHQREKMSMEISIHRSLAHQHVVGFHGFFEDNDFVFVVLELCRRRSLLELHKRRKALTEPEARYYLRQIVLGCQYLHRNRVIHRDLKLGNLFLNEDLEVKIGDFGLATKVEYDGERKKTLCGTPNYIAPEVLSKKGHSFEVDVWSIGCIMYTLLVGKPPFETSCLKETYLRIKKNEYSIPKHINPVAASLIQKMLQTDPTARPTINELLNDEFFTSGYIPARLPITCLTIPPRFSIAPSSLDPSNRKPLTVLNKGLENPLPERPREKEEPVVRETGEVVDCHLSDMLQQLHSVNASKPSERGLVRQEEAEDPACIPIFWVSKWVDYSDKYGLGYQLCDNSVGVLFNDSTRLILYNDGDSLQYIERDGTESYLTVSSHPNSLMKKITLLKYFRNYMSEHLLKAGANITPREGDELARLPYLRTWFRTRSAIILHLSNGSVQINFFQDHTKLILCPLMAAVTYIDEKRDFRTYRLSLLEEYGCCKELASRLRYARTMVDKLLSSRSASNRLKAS

DCAMKL1 (DCLK1) = DCAMKL1 (DCLK1) (Homo sapiens (Human), UniProt O15075); assay: KINOMEscan scanMAX; assay type: binding; details: 2000 nM; read-out: Percent Control
CLK1 = CLK1 (Homo sapiens (Human), UniProt P49759); assay: KINOMEscan scanMAX; assay type: binding; details: 2000 nM; read-out: Percent Control
PRKCH = PRKCH (Homo sapiens (Human), UniProt P24723); assay: KINOMEscan scanMAX; assay type: binding; details: 2000 nM; read-out: Percent Control
CDC2L2 = CDC2L2 (Homo sapiens (Human), UniProt Q9UQ88); assay: KINOMEscan scanMAX; assay type: binding; details: 2000 nM; read-out: Percent Control
Chain of CDC2L2 (Q9UQ88 whole entry): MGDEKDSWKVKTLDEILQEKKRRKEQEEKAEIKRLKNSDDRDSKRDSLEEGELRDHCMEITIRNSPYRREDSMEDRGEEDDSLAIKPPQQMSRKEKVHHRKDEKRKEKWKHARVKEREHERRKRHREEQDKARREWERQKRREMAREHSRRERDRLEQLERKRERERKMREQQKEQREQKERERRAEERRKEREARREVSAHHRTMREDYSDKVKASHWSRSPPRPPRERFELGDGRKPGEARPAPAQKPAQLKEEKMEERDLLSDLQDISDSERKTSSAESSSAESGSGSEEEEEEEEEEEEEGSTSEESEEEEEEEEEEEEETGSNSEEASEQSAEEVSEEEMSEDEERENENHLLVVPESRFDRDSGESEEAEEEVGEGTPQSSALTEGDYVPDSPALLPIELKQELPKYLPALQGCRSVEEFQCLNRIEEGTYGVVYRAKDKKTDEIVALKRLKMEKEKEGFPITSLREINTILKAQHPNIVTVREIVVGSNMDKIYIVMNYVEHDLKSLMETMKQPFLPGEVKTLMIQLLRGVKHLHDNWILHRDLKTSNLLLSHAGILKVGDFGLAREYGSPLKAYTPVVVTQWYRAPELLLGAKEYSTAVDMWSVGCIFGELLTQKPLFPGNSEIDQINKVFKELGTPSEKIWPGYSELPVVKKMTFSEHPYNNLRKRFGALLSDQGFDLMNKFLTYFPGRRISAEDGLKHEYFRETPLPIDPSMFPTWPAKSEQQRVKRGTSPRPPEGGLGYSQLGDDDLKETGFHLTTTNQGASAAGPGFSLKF

RIPK5 (DSTYK) = RIPK5 (DSTYK) (Homo sapiens (Human), UniProt Q6XUX3); assay: KINOMEscan scanMAX; assay type: binding; details: 2000 nM; read-out: Percent Control
NEK3 = NEK3 (Homo sapiens (Human), UniProt P51956); assay: KINOMEscan scanMAX; assay type: binding; details: 2000 nM; read-out: Percent Control
[1] = target: RPS6KA5(Kin.Dom.1-N-terminal) (Homo sapiens (Human), UniProt O75582); assay: KINOMEscan scanMAX; assay type: binding; details: 2000 nM; read-out: Percent Control
PRKD2 = PRKD2 (Homo sapiens (Human), UniProt Q9BZL6); assay: KINOMEscan scanMAX; assay type: binding; details: 2000 nM; read-out: Percent Control
MET(Y1235D) = MET(Y1235D) (Homo sapiens (Human), UniProt P08581, Y1235D); assay: KINOMEscan scanMAX; assay type: binding; details: 2000 nM; read-out: Percent Control
IKK-alpha (CHUK) = IKK-alpha (CHUK) (Homo sapiens (Human), UniProt O15111); assay: KINOMEscan scanMAX; assay type: binding; details: 2000 nM; read-out: Percent Control
NDR2 (STK38L) = NDR2 (STK38L) (Homo sapiens (Human), UniProt Q9Y2H1); assay: KINOMEscan scanMAX; assay type: binding; details: 2000 nM; read-out: Percent Control
BMPR2 = BMPR2 (Homo sapiens (Human), UniProt Q13873); assay: KINOMEscan scanMAX; assay type: binding; details: 2000 nM; read-out: Percent Control
EPHB2 = EPHB2 (Homo sapiens (Human), UniProt P29323); assay: KINOMEscan scanMAX; assay type: binding; details: 2000 nM; read-out: Percent Control
TAOK1 = TAOK1 (Homo sapiens (Human), UniProt Q7L7X3); assay: KINOMEscan scanMAX; assay type: binding; details: 2000 nM; read-out: Percent Control
Chain of TAOK1 (Q7L7X3 whole entry): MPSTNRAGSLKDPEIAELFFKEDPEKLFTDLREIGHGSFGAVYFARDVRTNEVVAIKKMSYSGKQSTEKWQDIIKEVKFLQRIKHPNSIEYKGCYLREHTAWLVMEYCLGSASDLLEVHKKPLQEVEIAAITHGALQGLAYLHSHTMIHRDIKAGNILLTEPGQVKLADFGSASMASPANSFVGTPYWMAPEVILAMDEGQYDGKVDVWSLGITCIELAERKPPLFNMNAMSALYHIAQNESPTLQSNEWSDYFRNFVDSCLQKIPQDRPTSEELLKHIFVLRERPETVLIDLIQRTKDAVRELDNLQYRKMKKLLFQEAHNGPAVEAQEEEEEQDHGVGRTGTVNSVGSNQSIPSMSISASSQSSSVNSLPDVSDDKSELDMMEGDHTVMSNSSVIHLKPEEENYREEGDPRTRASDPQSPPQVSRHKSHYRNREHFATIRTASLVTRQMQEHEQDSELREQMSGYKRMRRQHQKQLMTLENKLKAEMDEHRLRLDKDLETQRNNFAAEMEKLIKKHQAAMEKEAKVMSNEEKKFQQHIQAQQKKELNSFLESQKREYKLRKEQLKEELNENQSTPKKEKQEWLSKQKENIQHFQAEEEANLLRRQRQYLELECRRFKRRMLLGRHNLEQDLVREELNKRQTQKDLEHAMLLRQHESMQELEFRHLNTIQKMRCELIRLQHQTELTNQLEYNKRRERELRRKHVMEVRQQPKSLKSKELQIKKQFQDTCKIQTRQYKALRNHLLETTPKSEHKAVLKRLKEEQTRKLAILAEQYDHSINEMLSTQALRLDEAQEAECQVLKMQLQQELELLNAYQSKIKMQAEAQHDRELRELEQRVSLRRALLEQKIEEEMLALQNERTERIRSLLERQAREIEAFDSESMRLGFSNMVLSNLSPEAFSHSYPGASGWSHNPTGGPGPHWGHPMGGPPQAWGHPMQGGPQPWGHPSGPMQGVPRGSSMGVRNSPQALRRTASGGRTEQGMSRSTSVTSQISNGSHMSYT

AAK1 = AAK1 (Homo sapiens (Human), UniProt Q2M2I8); assay: KINOMEscan scanMAX; assay type: binding; details: 2000 nM; read-out: Percent Control
AKT1 = AKT1 (Homo sapiens (Human), UniProt P31749); assay: KINOMEscan scanMAX; assay type: binding; details: 2000 nM; read-out: Percent Control
PRKR (EIF2AK2) = PRKR (EIF2AK2) (Homo sapiens (Human), UniProt P19525); assay: KINOMEscan scanMAX; assay type: binding; details: 2000 nM; read-out: Percent Control
Chain of PRKR (EIF2AK2) (P19525 whole entry): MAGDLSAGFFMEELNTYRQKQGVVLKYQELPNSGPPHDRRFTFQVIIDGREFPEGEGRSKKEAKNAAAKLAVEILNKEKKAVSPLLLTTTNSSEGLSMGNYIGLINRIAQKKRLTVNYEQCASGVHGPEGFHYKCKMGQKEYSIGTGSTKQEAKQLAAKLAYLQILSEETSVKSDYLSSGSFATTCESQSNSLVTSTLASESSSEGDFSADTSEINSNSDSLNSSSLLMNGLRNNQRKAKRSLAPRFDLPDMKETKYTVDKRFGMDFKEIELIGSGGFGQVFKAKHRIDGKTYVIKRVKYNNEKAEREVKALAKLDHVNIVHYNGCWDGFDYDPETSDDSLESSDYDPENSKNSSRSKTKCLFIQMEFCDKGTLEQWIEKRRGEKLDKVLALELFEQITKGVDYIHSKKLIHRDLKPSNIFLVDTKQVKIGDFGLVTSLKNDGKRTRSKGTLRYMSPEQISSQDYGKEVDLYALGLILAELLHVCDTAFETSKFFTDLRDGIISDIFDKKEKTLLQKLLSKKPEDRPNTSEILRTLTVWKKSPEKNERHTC

MAP4K2 = MAP4K2 (Homo sapiens (Human), UniProt Q12851); assay: DiscoverX Kd assay
PIK3CA(E545K) = PIK3CA(E545K) (Homo sapiens (Human), UniProt P42336, E545K); assay: KINOMEscan scanMAX; assay type: binding; details: 2000 nM; read-out: Percent Control
PFTAIRE2 (CDK15) = PFTAIRE2 (CDK15) (Homo sapiens (Human), UniProt Q96Q40); assay: KINOMEscan scanMAX; assay type: binding; details: 2000 nM; read-out: Percent Control
Chain of PFTAIRE2 (CDK15) (Q96Q40 whole entry): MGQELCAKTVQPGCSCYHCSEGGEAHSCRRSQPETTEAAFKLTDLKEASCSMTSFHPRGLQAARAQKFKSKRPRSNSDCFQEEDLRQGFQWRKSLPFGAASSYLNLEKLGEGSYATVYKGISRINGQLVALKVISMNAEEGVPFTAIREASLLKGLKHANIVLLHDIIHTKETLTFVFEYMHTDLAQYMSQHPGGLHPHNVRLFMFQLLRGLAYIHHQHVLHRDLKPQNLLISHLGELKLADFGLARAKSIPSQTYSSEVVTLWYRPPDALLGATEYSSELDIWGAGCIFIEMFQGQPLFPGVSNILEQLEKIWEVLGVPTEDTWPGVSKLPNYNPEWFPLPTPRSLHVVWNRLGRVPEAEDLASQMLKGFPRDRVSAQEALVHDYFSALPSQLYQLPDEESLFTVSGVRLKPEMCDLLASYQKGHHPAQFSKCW

p38-delta (MAPK13) = p38-delta (MAPK13) (Homo sapiens (Human), UniProt O15264); assay: KINOMEscan scanMAX; assay type: binding; details: 2000 nM; read-out: Percent Control
[2] = target: RSK3(Kin.Dom.1-N-terminal) (RPS6KA2) (Homo sapiens (Human), UniProt Q15349); assay: KINOMEscan scanMAX; assay type: binding; details: 2000 nM; read-out: Percent Control
Chain of RSK3(Kin.Dom.1-N-terminal) (RPS6KA2) (Q15349 59-318): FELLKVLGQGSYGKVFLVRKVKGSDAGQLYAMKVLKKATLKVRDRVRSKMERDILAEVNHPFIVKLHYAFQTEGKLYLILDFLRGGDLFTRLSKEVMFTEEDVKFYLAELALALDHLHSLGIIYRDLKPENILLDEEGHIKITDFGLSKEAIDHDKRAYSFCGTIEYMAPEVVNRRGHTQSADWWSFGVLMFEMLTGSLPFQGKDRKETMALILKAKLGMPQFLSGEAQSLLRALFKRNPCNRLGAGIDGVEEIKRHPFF

PLK3 = PLK3 (Homo sapiens (Human), UniProt Q9H4B4); assay: KINOMEscan scanMAX; assay type: binding; details: 2000 nM; read-out: Percent Control
Chain of PLK3 (Q9H4B4 whole entry): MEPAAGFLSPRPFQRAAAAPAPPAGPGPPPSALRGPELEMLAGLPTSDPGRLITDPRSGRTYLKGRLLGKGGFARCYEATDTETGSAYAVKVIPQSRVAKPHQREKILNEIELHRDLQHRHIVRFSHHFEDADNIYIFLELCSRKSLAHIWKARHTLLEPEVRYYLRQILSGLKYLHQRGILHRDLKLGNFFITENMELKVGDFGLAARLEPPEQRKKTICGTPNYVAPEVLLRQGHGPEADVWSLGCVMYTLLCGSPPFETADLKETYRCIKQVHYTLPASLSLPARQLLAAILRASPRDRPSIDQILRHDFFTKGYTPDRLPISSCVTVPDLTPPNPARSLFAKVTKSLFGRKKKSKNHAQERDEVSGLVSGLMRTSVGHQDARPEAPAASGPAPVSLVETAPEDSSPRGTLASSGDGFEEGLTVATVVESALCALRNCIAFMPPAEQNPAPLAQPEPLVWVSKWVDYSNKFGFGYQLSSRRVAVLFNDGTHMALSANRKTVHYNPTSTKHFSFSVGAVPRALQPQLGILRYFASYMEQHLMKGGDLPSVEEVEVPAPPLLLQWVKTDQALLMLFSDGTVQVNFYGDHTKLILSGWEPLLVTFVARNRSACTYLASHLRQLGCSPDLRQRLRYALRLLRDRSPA

MAK = MAK (Homo sapiens (Human), UniProt P20794); assay: KINOMEscan scanMAX; assay type: binding; details: 2000 nM; read-out: Percent Control
p38-gamma (MAPK12) = p38-gamma (MAPK12) (Homo sapiens (Human), UniProt P53778); assay: KINOMEscan scanMAX; assay type: binding; details: 2000 nM; read-out: Percent Control
EGFR(L861Q) = EGFR(L861Q) (Homo sapiens (Human), UniProt P00533, L861Q); assay: KINOMEscan scanMAX; assay type: binding; details: 2000 nM; read-out: Percent Control
ERBB4 = ERBB4 (Homo sapiens (Human), UniProt Q15303); assay: KINOMEscan scanMAX; assay type: binding; details: 2000 nM; read-out: Percent Control
SRPK3 = SRPK3 (Homo sapiens (Human), UniProt Q9UPE1); assay: KINOMEscan scanMAX; assay type: binding; details: 2000 nM; read-out: Percent Control
EPHA7 = EPHA7 (Homo sapiens (Human), UniProt Q15375); assay: KINOMEscan scanMAX; assay type: binding; details: 2000 nM; read-out: Percent Control
ADCK3 (CABC1) = ADCK3 (CABC1) (Homo sapiens (Human), UniProt Q8NI60); assay: KINOMEscan scanMAX; assay type: binding; details: 2000 nM; read-out: Percent Control
PIP5K1A = PIP5K1A (Homo sapiens (Human), UniProt Q99755); assay: KINOMEscan scanMAX; assay type: binding; details: 2000 nM; read-out: Percent Control
SRC = SRC (Homo sapiens (Human), UniProt P12931); assay: KINOMEscan scanMAX; assay type: binding; details: 2000 nM; read-out: Percent Control
Chain of SRC (P12931 whole entry, looked up): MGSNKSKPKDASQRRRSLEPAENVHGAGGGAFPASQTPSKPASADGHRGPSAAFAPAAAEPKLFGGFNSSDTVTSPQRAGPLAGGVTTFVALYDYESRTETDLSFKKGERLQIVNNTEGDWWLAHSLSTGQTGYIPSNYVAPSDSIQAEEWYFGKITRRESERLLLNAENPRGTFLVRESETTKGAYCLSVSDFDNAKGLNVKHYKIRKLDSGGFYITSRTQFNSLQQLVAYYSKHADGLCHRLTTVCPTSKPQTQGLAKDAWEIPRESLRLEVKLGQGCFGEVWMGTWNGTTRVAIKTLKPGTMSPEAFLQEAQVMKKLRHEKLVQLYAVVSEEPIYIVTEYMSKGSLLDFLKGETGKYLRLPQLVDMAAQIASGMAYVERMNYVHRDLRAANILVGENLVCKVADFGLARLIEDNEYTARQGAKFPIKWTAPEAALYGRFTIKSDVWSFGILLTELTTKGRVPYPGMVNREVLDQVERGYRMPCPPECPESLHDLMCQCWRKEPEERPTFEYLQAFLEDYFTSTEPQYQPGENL

SMILES: CN1CCN(C(=O)c2ccc3cc(CCNc4ccnc5ccc(C#N)cc45)ccc3c2)CC1 [compound 6148, 4-((2-(6-(4-methylpiperazine-1-carbonyl)naphthalen-2-yl)ethyl)amino)quinoline-6-carbonitrile]
- remaining binding at 2 µM (PHKG1): 95%
- remaining binding at 2 µM (MAP3K1): 78%
- remaining binding at 2 µM (CDK8): 1.3%
- remaining binding at 2 µM (CAMK4): 95%
- remaining binding at 2 µM (IRAK3): 94%
- remaining binding at 2 µM (EPHA1): 93%
- remaining binding at 2 µM (HPK1 (MAP4K1)): 94%
- remaining binding at 2 µM (PLK1): 63%
- remaining binding at 2 µM (DCAMKL1 (DCLK1)): 63%
- remaining binding at 2 µM (CLK1): 60%
- remaining binding at 2 µM (PRKCH): 91%
- remaining binding at 2 µM (CDC2L2): 97%
- remaining binding at 2 µM (RIPK5 (DSTYK)): 69%
- remaining binding at 2 µM (NEK3): 60%
- remaining binding at 2 µM [1]: 86%
- remaining binding at 2 µM (PRKD2): 88%
- remaining binding at 2 µM (MET(Y1235D)): 78%
- remaining binding at 2 µM (IKK-alpha (CHUK)): 76%
- remaining binding at 2 µM (NDR2 (STK38L)): 96%
- remaining binding at 2 µM (BMPR2): 66%
- remaining binding at 2 µM (EPHB2): 86%
- remaining binding at 2 µM (TAOK1): 76%
- remaining binding at 2 µM (AAK1): 84%
- remaining binding at 2 µM (AKT1): 89%
- remaining binding at 2 µM (PRKR (EIF2AK2)): 88%
- Kd (MAP4K2): 0.94 µM
- remaining binding at 2 µM (PIK3CA(E545K)): 55%
- remaining binding at 2 µM (PFTAIRE2 (CDK15)): 100%
- remaining binding at 2 µM (p38-delta (MAPK13)): 97%
- remaining binding at 2 µM [2]: 100%
- remaining binding at 2 µM (PLK3): 80%
- remaining binding at 2 µM (MAK): 100%
- remaining binding at 2 µM (p38-gamma (MAPK12)): 100%
- remaining binding at 2 µM (EGFR(L861Q)): 64%
- remaining binding at 2 µM (ERBB4): 95%
- remaining binding at 2 µM (SRPK3): 96%
- remaining binding at 2 µM (EPHA7): 91%
- remaining binding at 2 µM (ADCK3 (CABC1)): 100%
- remaining binding at 2 µM (PIP5K1A): 84%
- remaining binding at 2 µM (SRC): 92%
